System: Ross 708 male broilers
Experiment: In vivo efficacy study in chickens: methionine source in methionine-deficient diet
Conditions: young broilers, 0 to 14 days of age, 0.15% added methionine, diet deficient in methionine (0.26%)
Method: HMTBA homopolymer was compared to HMTBA calcium salt (MHA) in young broilers chicks as methionine source with a diet deficient in dietary methionine (0.26%) as negative control. A total of 108 Ross 708 male broilers were randomly assigned to 18 battery pens with 6 birds per pen. Six replicate pens were fed one of the 3 test diets from 0 to 14 days of age. HMTBA and MHA were added at equal molar basis to provide 0.15% added methionine. Growth performance parameters including body weight, feed conversion ratio (FCR), feed intake, and mortality, were measured and the body weight and FCR results are shown in FIG. 4.

For `CSCCC(O)C(=O)[O-].CSCCC(O)C(=O)[O-].[Ca+2]` (stereo not shown) [MHA, HMTBA calcium salt], the body weight was “significantly increased”, the “feed conversion ratio (FCR)” value was “significantly improved” and the performance index was “significantly increased”. For the same molecule, the weight gain was “significantly increased”.

— US9447068B2, “Functionalized polymer compositions” (Novus International Inc., priority 2012, dated 2016)
